Results as given in patent US7067486B2, “Acetylcholinesterase-derived peptides and uses thereof” (priority 1999, dated 2006).
Marks after values point to notes of the source that are not given here.

Tests used:
Type in all cases: cell-based, human
CD34^+ cells [1] = assay: Viable cell expansion in CD34+ liquid cultures (trypan blue exclusion); conditions: day 14; seeded at 50,000 cells/well; ARP 2 nM, cortisol 1.2 μM, ASP 2 nM, SCF 50 ng/ml, AS1 20 pM, PBAN 2 nM
From the text: Cell Source: UCB was collected, following informed consent of the parents and with the approval of the Sourasky Medical Center Ethics Committee, as previously described [Grisaru et al. (1999a) Am. J. Obstet. Gynecol, 180, 1240–1243]. Following 1:1 (v/v) dilution in Iscove's modified Dulbecco medium (IMDM, Beit Haemek, Israel), mononuclear cells were separated using 3% gelatin (Difco, Detroit, Mich.) and Ficoll-Hypaque gradients (<1.077 g/ml; Pharmacia, Uppsala, Sweden) [Pick et al. (1998) Br. J. Haematol. 103, 639–50]. CD34^+ cells were enriched using CD34 immunoglobulin-coated magnetic beads (CD34 progenitor cell selection system, Dynal, Norway).CD34^+ cells analysis was performed by flow cytometry (Becton Dickinson Immunocytochemistry System Inc., San Jose, Calif.), using CD34-PE (Becton Dickinson Immunocytometry System, Inc.) and CD45-FITC (Dako, Glostrup, Denmark) monoclonal antibodies. […] Liquid Cultures: UCB CD34^+ cells were set for liquid cultures at a concentration of 10^5/mL in IMDM, containing 10% autologous plasma, 2 mM L-glutamine (Sigma Chemical Co., St Louis, Mo.), penicillin ([…]), streptomycin ([…]), amphotericin B (2×10^−5 M) (Sigma Chemical Co.), and heparin (20 IU/mL, Gibco, Grand Island, N.Y.), all in a fully humidified atmosphere at 37° C. and 5% CO2. The following elements were added where noted: • 1. Hematopoietic growth factors: Interleukin 3 (IL3, 5 ng/mL, Immunex, Seattle, Wash.), interleukin 6 (IL6, 50 ng/mL, R&D Systems, Minneapolis, Minn.), TPO (1 ng/mL, R&D Systems), stem cell factor (SCF, 10 ng/mL, R&D Systems), FLT-3 ligand (FLT3, 50 ng/mL, R&D Systems), granulocyte-macrophage colony stimulating factor (GM-CSF, 50 ng/mL, Biogenesis Ltd, Bournemouth, UK) and combinations of the above, for 24 hr to 28 days (supplemented every 4 days). • 2. Endothlial Growth factors: Epidermal growth factor (EGF 10 ng/ml, Sigma Chemical Co.), basic Fibroblast growth factor (bFGF 20 ng/ml, Sigma Chemical Co.) incubated in a serum free medium (SFM) for 48 hr. • 3. […] AChE C-terminal peptides: The following C-terminal peptides of the AChE synaptic (ASP, also denoted SEQ ID: No. 2) and readthrough (ARP, also denoted SEQ ID: No. 1) isoforms were synthesized using a 433A peptide synthesizer (PE Applied Biosystems, Inc., Norwalk, Conn.). • ASP: 1-[…]-40, also denoted as SEQ ID: No. 2. • ARP: 1-[…]-26, also denoted as SEQ ID: No. 1. […]

CD34^+ cells [2] = assay: Cell phenotyping of CD34+ liquid cultures by flow cytometry (CD34, CD33, CD15, CD41)
From the text: Cell Source: UCB was collected, following informed consent of the parents and with the approval of the Sourasky Medical Center Ethics Committee, as previously described [Grisaru et al. (1999a) Am. J. Obstet. Gynecol, 180, 1240–1243]. Following 1:1 (v/v) dilution in Iscove's modified Dulbecco medium (IMDM, Beit Haemek, Israel), mononuclear cells were separated using 3% gelatin (Difco, Detroit, Mich.) and Ficoll-Hypaque gradients (<1.077 g/ml; Pharmacia, Uppsala, Sweden) [Pick et al. (1998) Br. J. Haematol. 103, 639–50]. CD34^+ cells were enriched using CD34 immunoglobulin-coated magnetic beads (CD34 progenitor cell selection system, Dynal, Norway).CD34^+ cells analysis was performed by flow cytometry (Becton Dickinson Immunocytochemistry System Inc., San Jose, Calif.), using CD34-PE (Becton Dickinson Immunocytometry System, Inc.) and CD45-FITC (Dako, Glostrup, Denmark) monoclonal antibodies. […] Liquid Cultures: UCB CD34^+ cells were set for liquid cultures at a concentration of 10^5/mL in IMDM, containing 10% autologous plasma, 2 mM L-glutamine (Sigma Chemical Co., St Louis, Mo.), penicillin ([…]), streptomycin ([…]), amphotericin B (2×10^−5 M) (Sigma Chemical Co.), and heparin (20 IU/mL, Gibco, Grand Island, N.Y.), all in a fully humidified atmosphere at 37° C. and 5% CO2. The following elements were added where noted: • 1. […] Endothlial Growth factors: Epidermal growth factor (EGF 10 ng/ml, Sigma Chemical Co.), basic Fibroblast growth factor (bFGF 20 ng/ml, Sigma Chemical Co.) incubated in a serum free medium (SFM) for 48 hr. • 3. Stress mimicking conditions: Hydrocortisone sodium succinate (Abic Ltd., Netanya, Israel) at concentrations equivalent to normal, intermediate and stress serum cortisol levels (0.1, 0.6 and 1.2 μM, respectively (De Vroede et al., Arch. Des. […] Antisense oligonucleotides: 3′-terminal 2′-O-Methylated 15- and 20-mer oligodeoxynucleotides in the antisense (AS) orientation, targeted against the common sequence domain in human AChEmRNA and BuChE mRNA, as control, […], as detailed elsewhere [Grisaru et al. (1999b) Mol. Cell. Biol. 19, 788–95]. • 5. AChE C-terminal peptides: The following C-terminal peptides of the AChE synaptic (ASP, also denoted SEQ ID: No. 2) and readthrough (ARP, also denoted SEQ ID: No. 1) isoforms were synthesized using a 433A peptide synthesizer (PE Applied Biosystems, Inc., Norwalk, Conn.). • ASP: 1-[…]-40, also denoted as SEQ ID: No. 2. • ARP: 1-[…]-26, also denoted as SEQ ID: No. 1.
(§1) Culture Analyses: Twenty-four hr liquid cultures served for cytochemical staining, in situ hybridization, and cell proliferation assay by 5-bromo-2′-deoxy-Uridine (BrdU) incorporation [Grisaru et al. (1999b) id ibid.]. Twenty-eight day liquid cultures were sampled every 6–8 days for viable cell counting (using trypan blue dye exclusion), cell phenotyping (CD34^+, CD33^+ and CD41^+ quantification using flow cytometry, with CD34-PE, CD33-FITC (Immunotech/Coulter, Hialeah, Fla.), CD41-FITC (Immunoquality Products, Groningen, Netherlands) and CD45-FITC monoclonal antibodies), and growth of progenitor colony (granulocyte-macrophage and megakaryocytic), using previously described techniques (Pick et al. (1998) id ibid.). […] 11, 1049–57]. Nuclear staining w with 4′,6-diamidino-2- phenylindole [DAPI, see e.g., Peterson et al. (1999) Genetics 152, 427–439].

[3] = test system: AChEmRNA transcripts (S, E, R); assay: In situ hybridization of AChEmRNA transcripts in cultured CD34+ cells, confocal quantification; conditions: 24 hr
Method: In Situ Hybridization: In situ hybridization procedures, were performed on cultured cells and human fetal tissues, as detailed elsewhere [Grisaru et al. (1999b) id ibid; Kaufer et al. (1998) id ibid.]. Cultured cells were centrifuged at 300× g and fixed, using 4% paraformaldehyde, to collagen-coated cover slips placed on the bottom of the culture well. […] 5′-Biotinylated, 2′-O-methylated AChEcRNA probes complementary to 3′-alternative human ACHE exons were employed. Detection and quantification of the various AChEmRNA transcripts in fetal tissues were performed as previously described [Grisaru et al. (1999b) id ibid.]. Confocal microscopy scans of the culture-derived cells were obtained using a MRC-1024 Bio-Rad confocal microscope (Hemel Hempsted Herts., UK). A projection was built from each cell image and specific criteria were set for size and intensity of the Fagt Red fluorescence. […]
The assumption that hematopoietic ACHE gene expression is modulated under stress was tested in CD34^+ cells cultured for 24 hr with increasing doses of hydrocortisone. Treated cells were subjected to cytochemical staining for AChE activity as well as to high resolution in situ hybridization followed by confocal microscopic quantification of labeling density. […] Because each cRNA probe has its own characteristic hybridization affinity, each transcript was quantified separately. […]

AChE = assay: Cytochemical staining of AChE catalytic activity in CD34+ cells; conditions: 24 hr
From the text: as §1

CD34^+ cells [4] = assay: BrdU incorporation into CD34+ cells (cell proliferation); conditions: GM-CSF alone, 16 hr
From the text: Cell Source: UCB was collected, following informed consent of the parents and with the approval of the Sourasky Medical Center Ethics Committee, as previously described [Grisaru et al. (1999a) Am. J. Obstet. Gynecol, 180, 1240–1243]. Following 1:1 (v/v) dilution in Iscove's modified Dulbecco medium (IMDM, Beit Haemek, Israel), mononuclear cells were separated using 3% gelatin (Difco, Detroit, Mich.) and Ficoll-Hypaque gradients (<1.077 g/ml; Pharmacia, Uppsala, Sweden) [Pick et al. (1998) Br. J. Haematol. 103, 639–50]. CD34^+ cells were enriched using CD34 immunoglobulin-coated magnetic beads (CD34 progenitor cell selection system, Dynal, Norway).CD34^+ cells analysis was performed by flow cytometry (Becton Dickinson Immunocytochemistry System Inc., San Jose, Calif.), using CD34-PE (Becton Dickinson Immunocytometry System, Inc.) and CD45-FITC (Dako, Glostrup, Denmark) monoclonal antibodies. […] Liquid Cultures: UCB CD34^+ cells were set for liquid cultures at a concentration of 10^5/mL in IMDM, containing 10% autologous plasma, 2 mM L-glutamine (Sigma Chemical Co., St Louis, Mo.), penicillin ([…]), streptomycin ([…]), amphotericin B (2×10^−5 M) (Sigma Chemical Co.), and heparin (20 IU/mL, Gibco, Grand Island, N.Y.), all in a fully humidified atmosphere at 37° C. and 5% CO2. The following elements were added where noted: • 1. Hematopoietic growth factors: Interleukin 3 (IL3, 5 ng/mL, Immunex, Seattle, Wash.), interleukin 6 (IL6, 50 ng/mL, R&D Systems, Minneapolis, Minn.), TPO (1 ng/mL, R&D Systems), stem cell factor (SCF, 10 ng/mL, R&D Systems), FLT-3 ligand (FLT3, 50 ng/mL, R&D Systems), granulocyte-macrophage colony stimulating factor (GM-CSF, 50 ng/mL, Biogenesis Ltd, Bournemouth, UK) and combinations of the above, for 24 hr to 28 days (supplemented every 4 days). • 2. […] AChE C-terminal peptides: The following C-terminal peptides of the AChE synaptic (ASP, also denoted SEQ ID: No. 2) and readthrough (ARP, also denoted SEQ ID: No. 1) isoforms were synthesized using a 433A peptide synthesizer (PE Applied Biosystems, Inc., Norwalk, Conn.). • ASP: 1-[…]-40, also denoted as SEQ ID: No. 2. • ARP: 1-[…]-26, also denoted as SEQ ID: No. 1.
[…] Twenty-eight day liquid cultures were sampled every 6–8 days for viable cell counting (using trypan blue dye exclusion), cell phenotyping (CD34^+, CD33^+ and CD41^+ quantification using flow cytometry, with CD34-PE, CD33-FITC (Immunotech/Coulter, Hialeah, Fla.), CD41-FITC (Immunoquality Products, Groningen, Netherlands) and CD45-FITC monoclonal antibodies), and growth of progenitor colony (granulocyte-macrophage and megakaryocytic), using previously described techniques (Pick et al. (1998) id ibid.). […]

[5] = day 14, seeded at 50,000 cells/well, ARP 2 nM, cortisol 1.2 μM, ASP 2 nM, SCF 50 ng/ml, AS1 20 pM, PBAN 2 nM
[6] = 1.2 μM hydrocortisone (stress-associated level)
[7] = 2-week primary cultures of CD34+ cells from 1 to 3 individuals, ± SEM where noted

Row | Molecule | Total viable cells (CD34^+ cells [1]) [cells per culture × 10^−3] | CD33^+ (early myeloids) (CD34^+ cells [2]; [5]) [cells per culture × 10^−3] | CD33^+ and CD15^+ (total myeloids) (CD34^+ cells [2]; [5]) [cells per culture × 10^−3] | CD34^+ (early progenitors) (CD34^+ cells [2]; [5]) [cells per culture × 10^−3] | CD41^+ (megakaryocytes) (CD34^+ cells [2]; [5]) | selective increase in "readthrough" AChE-R mRNA transcript ([3]; 0.60 μM hydrocortisone, above level at 0.10 μM, CD34+ cells) [%] | labeling of all 3 AChEmRNA transcripts [3, 6] | enzyme activity of CD34+ cells (AChE; 0.60 μM hydrocortisone) | catalytic activity of the stem cell-associated enzyme (AChE; [6]) | BrdU incorporation into CD34+ cells (CD34^+ cells [4]) | MK (CD41^+) fold expansion (CD34^+ cells [2]; [7]) [fold] | Myeloid (CD33^+) fold expansion (CD34^+ cells [2]; [7]) [fold]
1 | C[C@]12CCC(=O)C=C1CC[C@@H]1[C@@H]2[C@@H](O)C[C@@]2(C)[C@H]1CC[C@]2(O)C(=O)COC(=O)CCC(=O)[O-].[Na+] [hydrocortisone, Hydrocortisone sodium succinate, reference compound] | 80.0 | 45.0 | 73.0 | 13.0 | 10.1^b cells per culture × 10^−3 | 40 | enhanced | no change | intensified | – | – | –
2 | GM-CSF | – | – | – | – | – | – | – | – | – | increased | 14.50 | 1.35
